Reference: article PMC5862516 (PLoS Neglected Tropical Diseases, 2018)
Where two headings read alike, the source gives them in different places.

Legend:
SOSV minigenome [1] = experiment: microbe, parasite or virus in culture; conditions: Sosuga virus; for activity at 0.05 µM / activity at 0.5 µM / activity at 5 µM: Huh-7, 72 h, read-out: Minigenome activity (Relative ZsG fluorescence); for EC50: Huh-7, read-out: Minigenome Screen EC50
in vitro = conditions: human
rSOSV = experiment: microbe, parasite or virus in culture; assay type: cell-based; conditions: Sosuga virus, Huh-7, 48 h, read-out: EC50 (rSOSV protein immunofluorescence)
rSOSV/ZsG = experiment: microbe, parasite or virus in culture; assay type: cell-based; conditions: Sosuga virus, Huh-7, read-out: rSOSV/ZsG Screen EC50
SOSV minigenome [2] = conditions: Huh7 cells; for Minigenome activity (Relative ZsG fluorescence): relative to mock-treated controls
[3] = human, in vivo, 125 mg/kg/day; cited from earlier work
Huh7 cells = conditions: human

Row | Structure (SMILES) | activity at 0.05 µM (SOSV minigenome [1]) | activity at 0.5 µM (SOSV minigenome [1]) | activity at 5 µM (SOSV minigenome [1]) | other results
1 | Nc1nc(Cl)nc2c1ncn2[C@@H]1O[C@H](CO)[C@@H](O)[C@H]1O [2-Chloroadenosine] | 148% | 143% | 145% | –
2 | C[C@@]1(O)[C@H](O)[C@@H](CO)O[C@H]1n1ccc(N)nc1=O [2′-C-Methylcytidine] | 124% | 104% | 114% | –
3 | C[C@@]1(O)[C@H](O)[C@@H](CO)O[C@H]1n1ccc(=O)[nH]c1=O [2′-C-Methyluridine] | 132% | 101% | 125% | –
4 | CO[C@@H]1[C@H](O)[C@@H](CO)O[C@H]1n1ccc(N)nc1=O [2′-O-Methylcytidine] | 129% | 104% | 119% | –
5 | CO[C@@H]1[C@H](O)[C@@H](CO)O[C@H]1n1ccc(=O)[nH]c1=O [2′-O-Methyluridine] | 150% | 104% | 142% | –
6 | Nc1ccn([C@@H]2O[C@H](CO)[C@@H](O)[C@H]2F)c(=O)n1 [2′-deoxy-2′-fluorocytidine] | 141% | 91% | 13% | viability (in vitro): > 80%; CC50 (in vitro): > 50 µM; EC50 (SOSV minigenome [1]): 1.31 ± 0.15 µM; EC50 (rSOSV): 4.09 µM; EC50 (rSOSV/ZsG): 1.48 ± 0.22 µM
7 | Nc1ncn([C@@H]2O[C@H](CO)[C@@H](O)[C@H]2O)c(=O)n1 [5-Azacytidine] | 146% | 111% | 108% | –
8 | [N-]=[N+]=Nc1cn([C@@H]2O[C@H](CO)[C@@H](O)[C@H]2O)c(=O)[nH]c1=O [5-Azidouridine] | 114% | 104% | 107% | –
9 | O=c1[nH]c(=O)n([C@@H]2O[C@H](CO)[C@@H](O)[C@H]2O)cc1Br [5-Bromouridine] | 97% | 92% | 122% | –
10 | O=c1[nH]c(=O)n([C@@H]2O[C@H](CO)[C@@H](O)[C@H]2O)cc1Cl [5-Chlorouridine] | 119% | 125% | 146% | –
11 | Cc1cn([C@@H]2O[C@H](CO)[C@@H](O)[C@H]2O)c(=O)nc1N [5-Methylcytidine] | 124% | 110% | 125% | –
12 | O=c1[nH]c(=O)n([C@@H]2O[C@H](CO)[C@@H](O)[C@H]2O)cc1F [5-fluorouridine] | 112% | 25% | 10% | viability (in vitro): > 80%; CC50 (in vitro): > 50 µM; EC50 (SOSV minigenome [1]): 0.29 ± 0.13 µM; Extent of minigenome signal inhibition and cytotoxicity (SOSV minigenome [2]; dose-response analysis): did not completely inhibit minigenome signal even at the highest concentrations evaluated
13 | O=c1cnn([C@@H]2O[C@H](CO)[C@@H](O)[C@H]2O)c(=S)[nH]1 [6-Aza-2-thiouridine] | 128% | 95% | 110% | –
14 | CC(=O)OC[C@H]1O[C@@H](n2ncc(=O)[nH]c2=O)[C@H](OC(C)=O)[C@@H]1OC(C)=O [6-azauridine triacetate] | – | – | – | plasma concentrations [3]: ≥ 100 µM
15 | O=c1cnn([C@@H]2O[C@H](CO)[C@@H](O)[C@H]2O)c(=O)[nH]1 [6-azauridine] | 120% | 103% | 46% | viability (in vitro): > 80%; CC50 (in vitro): > 50 µM; EC50 (SOSV minigenome [1]): 5.17 ± 1.01 µM; EC50 (rSOSV): 8.9 µM; EC50 (rSOSV/ZsG): 7.99 ± 1.32 µM
16 | C[C@@]1(O)[C@H](O)[C@@H](CO)O[C@H]1n1ccc2c(N)ncnc21 [7-DMA] | – | – | – | Minigenome activity (Relative ZsG fluorescence) (SOSV minigenome [2]; 50 nM): 1.26; Minigenome activity (Relative ZsG fluorescence) (SOSV minigenome [2]; 500 nM): 1.02; Minigenome activity (Relative ZsG fluorescence) (SOSV minigenome [2]; 5000 nM): 1.06
17 | Nc1ncnc2c1nnn2[C@@H]1O[C@H](CO)[C@@H](O)[C@H]1O [8-Azaadenosine] | 146% | 85% | 2% | –

Row | Structure (SMILES) | activity at 0.05 µM (SOSV minigenome [1]) | activity at 0.5 µM (SOSV minigenome [1]) | activity at 5 µM (SOSV minigenome [1]) | other results
18 | [N-]=[N+]=Nc1nc2c(N)ncnc2n1[C@@H]1O[C@H](CO)[C@@H](O)[C@H]1O [8-Azidoadenosine] | 120% | 122% | 1% | –
19 | COc1c(-c2ccc3cc(NS(C)(=O)=O)ccc3c2)cc(-n2ccc(=O)[nH]c2=O)cc1C(C)(C)C [ABT-333] | 127% | 108% | 105% | –
20 | CC[C@H]1OC(=O)[C@H](C)[C@@H](O[C@H]2C[C@@](C)(OC)[C@@H](O)[C@H](C)O2)[C@H](C)[C@@H](O[C@@H]2O[C@H](C)C[C@H](N(C)C)[C@H]2O)[C@](C)(O)C[C@@H](C)CN(C)[C@H](C)[C@@H](O)[C@]1(C)O [Azithromycin] | 102% | 106% | 111% | –
21 | Nc1ncnc2c([C@@H]3N[C@H](CO)[C@@H](O)[C@H]3O)c[nH]c12 [BCX-4430] | 133% | 105% | 118% | –
22 | CC(C)C(=O)OC[C@@]1(N=[N+]=[N-])O[C@@H](n2ccc(N)nc2=O)[C@H](OC(=O)C(C)C)[C@@H]1OC(=O)C(C)C [Balapiravir (R1626), Balapiravir] | 105% | 93% | 90% | –
23 | Nc1ncnc2c1ncn2[C@@H]1O[C@H](CO)C[C@H]1O [Cordycepin] | 128% | 104% | 101% | –
24 | COc1c(C)c2c(c(O)c1C/C=C(\C)CCC(=O)O)C(=O)OC2 [Mycophenolic acid] | 89% | 14% | 1% | CC50 (Huh7 cells): 1.74 ± 0.42 µM; viability (in vitro): > 80%; CC50 (in vitro): 1.7 µM; EC50 (rSOSV): 0.48 µM; EC50 (rSOSV/ZsG): 0.33 ± 0.04 µM; Minigenome Screen EC50 (SOSV minigenome [2]; ZsG fluorescence 72 hpt, normalized to mock-treated (DMSO) cells, listed as MPA): sub-micromolar
25 | C#C[C@@]1(O)[C@H](O)[C@@H](CO)O[C@H]1n1ccc2c(N)ncnc21 [NITD008] | – | – | – | Minigenome activity (Relative ZsG fluorescence) (SOSV minigenome [2]; 50 nM): 1.35; Minigenome activity (Relative ZsG fluorescence) (SOSV minigenome [2]; 500 nM): 1.07; Minigenome activity (Relative ZsG fluorescence) (SOSV minigenome [2]; 5000 nM): 1.13
26 | C[C@@]1(F)[C@H](O)[C@@H](CO)O[C@H]1n1ccc(N)nc1=O [PSI-6130] | – | – | – | Minigenome activity (Relative ZsG fluorescence) (SOSV minigenome [2]; 50 nM): 0.84; Minigenome activity (Relative ZsG fluorescence) (SOSV minigenome [2]; 500 nM): 0.85; Minigenome activity (Relative ZsG fluorescence) (SOSV minigenome [2]; 5000 nM): 0.91
27 | CC(C)OC(=O)[C@H](C)N[P@](=O)(OC[C@H]1O[C@@H](n2ccc(=O)[nH]c2=O)[C@](C)(F)[C@@H]1O)Oc1ccccc1 [PSI-7977] | 102% | 102% | 89% | –
28 | [N-]=[N+]=N[C@]1(CO)O[C@@H](n2ccc(N)nc2=O)[C@H](O)[C@@H]1O [R-1479] | – | – | – | Minigenome activity (Relative ZsG fluorescence) (SOSV minigenome [2]; 50 nM): 0.91; Minigenome activity (Relative ZsG fluorescence) (SOSV minigenome [2]; 500 nM): 0.84; Minigenome activity (Relative ZsG fluorescence) (SOSV minigenome [2]; 5000 nM): 0.73
29 | CC(C)C(=O)OC[C@H]1O[C@@H](n2ccc(N)nc2=O)[C@](C)(F)[C@@H]1OC(=O)C(C)C [R-7128] | – | – | – | Minigenome activity (Relative ZsG fluorescence) (SOSV minigenome [2]; 50 nM): 0.84; Minigenome activity (Relative ZsG fluorescence) (SOSV minigenome [2]; 500 nM): 0.87; Minigenome activity (Relative ZsG fluorescence) (SOSV minigenome [2]; 5000 nM): 0.99
30 | NC(=O)c1ncn([C@@H]2O[C@H](CO)[C@@H](O)[C@H]2O)n1 [Ribavirin] | 136% | 113% | 78% | CC50 (in vitro): > 50 µM; EC50 (SOSV minigenome [1]): 5.91 ± 0.85 µM; EC50 (rSOSV/ZsG): 6.1 ± 0.09 µM
31 | Cc1cn([C@H]2C=C[C@@H](CO)O2)c(=O)[nH]c1=O [Stavudine] | 126% | 104% | 115% | –
32 | NC(=O)c1nc(F)cnc1O [T-705] | – | – | – | Minigenome activity (Relative ZsG fluorescence) (SOSV minigenome [2]; 50 nM): 1.11; Minigenome activity (Relative ZsG fluorescence) (SOSV minigenome [2]; 500 nM): 1.17; Minigenome activity (Relative ZsG fluorescence) (SOSV minigenome [2]; 5000 nM): 1.05
33 | C[C@H](Cn1cnc2c(N)ncnc21)OCP(=O)(O)O [Tenofovir] | 110% | 106% | 107% | –
34 | Cc1cn([C@H]2C[C@H](N=[N+]=[N-])[C@@H](CO)O2)c(=O)[nH]c1=O [Zidovudine] | 123% | 93% | 113% | –
